Test results from patent US8017584B2, “GD3-mimetic peptides” (Otsuka Pharmaceutical Co., Ltd., priority 2000, dated 2011).
Values joined by “and” are separate entries in the source; they are usually repeats but may differ in a detail not shown here. Equal values may be shown once.

How the values were obtained:
GD3 antibody 4F6 [1] = experiment: ELISA of immobilized phage clones with GD3 antibody 4F6 (Example 2); type: binding, mouse; details: for absorbance OD450-OD620, binding to GD3 antibody 4F6: phage clone immobilized, duplicate lines
Method: (§1) A 0.1M NaHCO3 solution containing each of the phage clones obtained in Example 1 (10^11, 10^10, or 10^9 titer/100 μL) was added to the wells of a 96-well microtiter plate (product of Nunc), for immobilization of the phage clones at room temperature for one hour. The supernatant was removed, then the wells were subjected to blocking by use of a blocking solution ([…]; TBS containing 1% BSA, 0.1% skim milk, and 0.02% Tween 20; pH 7.5) at 37° C. for four hours.
(§2) The supernatant was removed, then GD3 antibody 4F6 (100 μL), serving as a primary antibody, was added to each well for reaction under shaking at room temperature for two hours. After completion of reaction, the supernatant was removed, then the wells were washed six times with a washing solution (400 μL for each well, TBS containing 0.05% Tween 20). Subsequently, a secondary antibody (anti-mouse IgG-HRP, product of Santa Cruz Biotechnology, catalogue No. SC-2031, Lot. No. C089) which was diluted 5,000-fold by use of a blocking solution prepared in advance was added to the wells (100 μL to each well) for reaction under shaking at room temperature for one hour. After completion of reaction, the wells were washed four times with a washing solution (400 μL for each well), then a detection reagent (TMB Microwell; product of KPL, Catalogue No. 50-76-04, Lot. No. WF075) was added to the wells (100 μL to each well), and the mixture was allowed to stand for five minutes at room temperature.
(§3) 1N-Hydrochloric acid (100 μL) was added to each well for stopping the reaction. Absorbance of each well was measured at 450 nm and 620 nm, and “OD450-OD620” was calculated. A Multiscan (product of Labosystems) was used in measurement of absorbance. A well in which phages had not been immobilized served as a blank, and the absorbance of each well was determined by subtracting the blank value from the “as-measured” value.

GD3 antibody 4F6 [2] = experiment: ELISA of immobilized MAP-form GD3-mimetic peptides with anti-GD3 antibody (Example 3(3)); type: binding, mouse; details: for ELISA absorbance, Anti-GD3 antibody: MAP form 100 ng/well
Method: as §1, §2, §3
A 0.1M NaHCO3 solution containing a GD3-mimetic peptide of the invention in the above MAP form (100 ng/100 μL) was added to the wells of a 96-well micro-titer plate, for immobilization at room temperature for one hour. Subsequently, in a manner similar to the ELISA method employed in Example 2, binding affinity of the GD3-mimetic peptide to GD3 antibody 4F6 was investigated.
Anti-GD2 antibody and anti-OAcGD3 antibody (Cerato, E., et al., Hybridoma, 16(4), 307-316 (1997)) were used as controls (these antibodies were kindly provided by from Dr. Portoukalian).

anti-GD3 antibody 4F6 = experiment: ELISA of MAPs immobilized at various amounts with 4F6 (Example 5(2), FIG. 3); type: binding, mouse; details: MAPs or GD3 immobilized at various amounts
Text: (1) In a manner similar to that described in Example 3, peptides of N-terminus 9 amino acid residues or C-terminus 9 amino acid residues of GD3R1, GD3R2, GD3R3, or GD3R4. The nomenclature and sequences of respective peptides employed in the present test are shown in FIG. 2 These were employed as multi-antigen peptides (MAPs). (2) In order to extend the research on bonding between the anti-GD3 antibody 4F6 and each of the GD3-mimetic peptides shown in FIG. 1, multi-antigen peptides (MAPs) were subjected to ELISA. MAP samples having a variety of concentrations shown on the X-axis in FIG. 3 were provided, and each sample was immobilized onto the wells of a 96-well plate. Subsequently, the wells were blocked with a blocking solution (TBS supplemented with 1% BSA, 0.1% skim milk, and 0.02% Tween 20) at 4° C. overnight. 4F6 (hybridoma supernatant: used in the neat form) was added (100 μL/well) for reaction at room temperature for 2 hours. After completion of reaction, the supernatant was discarded, and the wells were washed with a washing solution (TBS supplemented with 1% FBS and 0.05% Tween 20) six times. Subsequently, the wells were allowed to react with peroxidase-labeled anti-mouse IgG (diluted 1,000-fold with a blocking solution) at room temperature for 2 hours. The wells were again washed with a washing solution four times, and the amount of peroxidase enzyme remaining in each well was detected and quantitatively determined with the substrate TMB, whereby binding of MAP to 4F6 was investigated. The test was performed in triplicate, and the values in the graph are “mean ±SD.”

[3] = system: binding between GD3 and 4F6 (anti-GD3 antibody); experiment: Inhibition by immobilized MAPs of binding between GD3 and 4F6 (Example 5(3), FIG. 4); set-up: species or system mouse; details: immobilized MAP or GD3 absorbs 4F6
Method: (3) The binding affinity shown in FIG. 3 was investigated in another method. Briefly, MAP samples having a variety of concentrations shown on the X-axis in FIG. 4 were provided. Each sample was immobilized onto the wells of a 96-well plate, and the wells were allowed to react with 4F6 (100 μL/well) at 4° C. overnight. On the following day, the supernatant (80 μL) was collected and added to the wells of another plate to which GD3 had been immobilized in advance (100 ng/well) for reaction at room temperature for 2 hours. After completion of reaction, the amount of antibody 4F6 that had been condensed with GD3 (i.e., that had not been absorbed by MAP) was detected and quantitatively determined through the method described (2) above, whereby inhibitory effect of MAP on binding of GD3 to 4F6 was investigated. The test was performed in triplicate, and the values in the graph are “mean ±SD.”

[4] = system: binding between GD3 and 4F6; experiment: Inhibition by exogenously added MAPs of binding between GD3 and 4F6 (Example 5(4), FIG. 5); set-up: species or system mouse; details: for inhibitory effect of exogenously added sample on binding between GD3 and 4F6 (words, FIG. 5): added simultaneously with 4F6 to GD3 100 ng/well; for order of binding strength to 4F6: deduced from FIG. 5
Method: (4) Next, investigation was made as to whether binding between GD3R3 or GD3R4 and 4F6 occurred at the GD3 binding site of 4F6. To the wells of a plate to which GD3 had been immobilized (100 ng/well), each of the MAP samples having a variety of concentrations shown on the X-axis in FIG. 5 and 4F6 (100 μL/well) were simultaneously added, whereby an inhibitory test was performed. The test was performed in triplicate, and the values in the graph are “mean ±SD.”

Sequence	absorbance OD450-OD620, binding to GD3 antibody 4F6 (GD3 antibody 4F6 [1]; 10^9 titer/well)	absorbance OD450-OD620, binding to GD3 antibody 4F6 (GD3 antibody 4F6 [1]; 10^11 titer/well)	binding to the anti-GD3 antibody (GD3 antibody 4F6 [2])	ELISA absorbance, Anti-GD3 antibody (GD3 antibody 4F6 [2]; Serum % 12.50%)	ELISA absorbance, Anti-GD3 antibody (GD3 antibody 4F6 [2]; Serum % 25%)	ELISA absorbance, Anti-GD3 antibody (GD3 antibody 4F6 [2]; Serum % 50%)	ELISA absorbance, Anti-GD3 antibody (GD3 antibody 4F6 [2]; Serum % 100%)	binding of 4F6 to immobilized sample (words, FIG. 3) (anti-GD3 antibody 4F6)	inhibition of GD3 binding to 4F6 by immobilized sample (words, FIG. 4) [3]	inhibitory effect of exogenously added sample on binding between GD3 and 4F6 (words, FIG. 5) [4]	order of binding strength to 4F6 [4]	binding to anti-GD3 antibody 4F6, overall conclusion ([4]; taken together, Example 5)	absorbance OD450-OD620, binding to GD3 antibody 4F6 (GD3 antibody 4F6 [1]; 10^10 titer/well)	binding affinity to GD3 antibody 4F6 (words, FIG. 1) (GD3 antibody 4F6 [1]; phage clones)
GLAPPDYAERFELLS [GD3R3, tested as phage clone, MAP form or peptide]	0.05 and 0.086	0.094 and 0.108	stronger bonding to the anti-GD3 antibody	0.176	0.237	0.357	0.483	in an amount-dependent manner	inhibit GD3 from binding to the antibody	exhibited inhibitory effect	GD3>GD3R3>GD3R4	the strongest in binding	–	–
LAPPRPRSELVFLSV (LAPPRPRSQLVFLSV) [GD3R1, tested as phage clone, MAP form or peptide]	0.017 and 0.026	0.094 and 0.086	–	0.083	0.127	0.137	0.263	–	–	–	–	–	0.067 and 0.055	–
PHFDSLLYPCELLGC (PHFDSLLYPCQLLGC) [GD3R2, tested as phage clone, MAP form or peptide]	0.055 and 0.034	–	–	0.055	0.105	0.159	0.264	–	–	–	–	–	0.128 and 0.109	–
RHAYRSMAEWGFLYS (RHAYRSMAQWGFLYS) [GD3R4, tested as phage clone, MAP form or peptide]	0.109 and 0.116	0.386 and 0.315	stronger bonding to the anti-GD3 antibody	0.144	0.229	0.309	0.381	in an amount-dependent manner	inhibit GD3 from binding to the antibody	did not	GD3>GD3R3>GD3R4	–	0.14 and 0.102	strongest binding affinity
